# Measurements published in patent US3974140A, “Ureidoacetamido-penicillins” (Bayer Aktiengesellschaft, priority 1970, dated 1976).
# Columns and labels:
# [1] = tested on: E. coli 14; assay: MIC, liquid medium test tube series dilution test; type: cell-based; conditions: E. coli 14, 24 hours, 37°C
# Summary of the method: (§1)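 Read-out: visual turbidity after 24 h at 37°C. The MIC, in units/ml, corresponds to the non-turbid tube in a liquid-medium test tube dilution series prepared in complete nutrient medium.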
# [2] = tested on: E. coli 183/58; assay: MIC, liquid medium test tube series dilution test; type: cell-based; conditions: E. coli 183/58, 24 hours, 37°C
# Summary of the method: as §1
# [3] = tested on: E. coli A 261; assay: MIC, liquid medium test tube series dilution test; type: cell-based; conditions: E. coli A 261, 24 hours, 37°C
# Summary of the method: as §1
# [4] = tested on: E. coli C 165; assay: MIC, liquid medium test tube series dilution test; type: cell-based; conditions: E. coli C 165, 24 hours, 37°C
# Summary of the method: as §1
# [5] = tested on: Klebsiella 63; assay: MIC, liquid medium test tube series dilution test; type: cell-based; conditions: Klebsiella 63, 24 hours, 37°C
# Summary of the method: as §1
# [6] = tested on: Streptoc. faec. ATCC 9790; assay: MIC, liquid medium test tube series dilution test; type: cell-based; conditions: Strep. faec. (Enterococcus) ATCC 9790, 24 hours, 37°C
# Summary of the method: as §1
# [7] = tested on: Proteus vulg. 1017; assay: MIC, liquid medium test tube series dilution test; type: cell-based, Proteus vulgaris; conditions: Proteus vulg. 1017, 24 hours, 37°C
# Summary of the method: as §1
# [8] = tested on: Proteus vulg. 3400; assay: MIC, liquid medium test tube series dilution test; type: cell-based, Proteus vulgaris; conditions: Proteus vulg. 3400, 24 hours, 37°C
# Summary of the method: as §1
# [9] = tested on: Psdm. aerug. Bonn; assay: MIC, liquid medium test tube series dilution test; type: cell-based, Pseudomonas aerug.; conditions: 24 hours, 37°C
# Summary of the method: as §1
# [10] = tested on: Psdm. aerug. Walter; assay: MIC, liquid medium test tube series dilution test; type: cell-based, Pseudomonas aerug.; conditions: 24 hours, 37°C
# Summary of the method: as §1
# [11] = tested on: Staph. aureus 133; assay: MIC, liquid medium test tube series dilution test; type: cell-based, Staphylococcus aureus; conditions: Staph. aureus 133, 24 hours, 37°C
# Summary of the method: as §1
# [12] = tested on: Staph. aureus 1777 E; assay: MIC, liquid medium test tube series dilution test; type: cell-based, Staphylococcus aureus; conditions: 24 hours, 37°C
# Summary of the method: as §1
# [13] = tested on: Staph. aureus 133; assay: Surviving mice after intraperitoneal infection and subcutaneous therapy; type: in vivo, white mice, CF1 strain; conditions: 2 × 200 units/mouse s.c.
# Description: The experiments on animals (see Table 3) were carried out with white mice of the CF1 strain. The infection took place intraperitoneally with the particular bacterium indicated.
# [14] = tested on: Klebsiella K 10; assay: MIC, liquid medium test tube series dilution test; type: cell-based; conditions: Klebsiella K 10, 24 hours, 37°C
# Summary of the method: as §1
MIC [1],MIC [2],MIC [3],MIC [4],MIC [5],MIC [6],MIC [7],MIC [8],MIC [9],MIC [10],MIC [11],MIC [12],MIC [14],SMILES,Number of surviving mice ([13]; 1 day) [%],Number of surviving mice ([13]; 2 days) [%],Number of surviving mice ([13]; 3 days) [%],Number of surviving mice ([13]; 5 days) [%]
"6,25 units/ml","12,5 units/ml",> 400 units/ml,50 units/ml,50 units/ml,50 units/ml,25 units/ml,50 units/ml,25 units/ml,25 units/ml,"1,56 units/ml",200 units/ml,100 units/ml,"Cc1ccc(C(NC(=O)N2CCNC2=O)C(=O)N[C@@H]2C(=O)N3[C@@H]2SC(C)(C)[C@@H]3C(=O)O)cc1 (stereo partly drawn) [Example 46, Sodium α-[(imidazolidin-2-on-1-yl)-carbonylamino]-p-methylbenzylpenicillin]",–,–,–,–
< 0.8 units/ml,< 0.8 units/ml,20-100 units/ml,0.8-4 units/ml,4-20 units/ml,4-20 units/ml,0.8-4 units/ml,0.8-4 units/ml,4-20 units/ml,4-20 units/ml,0.8 units/ml,4-20 units/ml,4-20 units/ml,"CN(C(=O)N[C@@H](C(=O)N[C@@H]1C(=O)N2[C@@H]1SC(C)(C)[C@@H]2C(=O)O)c1ccccc1)C(=O)c1cc(Cl)ccc1Cl [Example 111, Sodium D(-)-α-(3-[2,5-dichlorobenzoyl]-3-methyl-ureido)-benzylpenicillin]",–,–,–,–
0.8 units/ml,< 0.8 units/ml,> 400 units/ml,0.8-4 units/ml,20-100 units/ml,4-20 units/ml,4-20 units/ml,0.8-4 units/ml,4-20 units/ml,4-20 units/ml,< 0.8 units/ml,20-100 units/ml,4-20 units/ml,"CN(C(=O)Cc1ccc([N+](=O)[O-])cc1)C(=O)N[C@@H](C(=O)N[C@@H]1C(=O)N2[C@@H]1SC(C)(C)[C@@H]2C(=O)O)c1ccccc1 [Example 132, Sodium D(-)-α-(3-[4-nitrophenacetyl]-3-methyl-ureido)-benzylpenicillin]",–,–,–,–
"3,12 units/ml","6,25 units/ml",> 400 units/ml,25 units/ml,50 units/ml,50 units/ml,50 units/ml,100 units/ml,"12,5 units/ml","12,5 units/ml","< 0,78 units/ml",200 units/ml,100 units/ml,"CC1(C)S[C@@H]2[C@H](NC(=O)C(NC(=O)N3CCNC3=O)c3ccc(Cl)cc3)C(=O)N2[C@H]1C(=O)O (stereo partly drawn) [Example 47, Sodium α-[(imidazolidin-2-on-1-yl)-carbonylamino]-p-chloro benzylpenicillin]",–,–,–,–
"6,25 units/ml","12,5 units/ml",> 400 units/ml,25 units/ml,100 units/ml,50 units/ml,100 units/ml,100 units/ml,"12,5 units/ml",25 units/ml,"< 0,78 units/ml",200 units/ml,100 units/ml,"CSc1ccc(C(NC(=O)N2CCNC2=O)C(=O)N[C@@H]2C(=O)N3[C@@H]2SC(C)(C)[C@@H]3C(=O)O)cc1 (stereo partly drawn) [Example 55, Sodium α-[(imidazolidin-2-on-1-yl)-carbonylamino]-4-methylthiobenzylpenicillin]",–,–,–,–
"6,25 units/ml","6,25 units/ml",> 400 units/ml,25 units/ml,100 units/ml,50 units/ml,200 units/ml,100 units/ml,"12,5 units/ml",25 units/ml,"< 0,78 units/ml",200 units/ml,100 units/ml,"CSc1ccc(C(NC(=O)N2CCNC2=O)C(=O)N[C@@H]2C(=O)N3[C@@H]2SC(C)(C)[C@@H]3C(=O)O)cc1 (stereo partly drawn) [Example 54, Sodium α-[(imidazolidin-2-on-1-yl)-carbonylamino]-4-methylthiobenzylpenicillin]",–,–,–,–

SMILES,MIC [1],MIC [2],MIC [3],MIC [4],MIC [5],MIC [6],MIC [7],MIC [8],MIC [9],MIC [10],MIC [11],MIC [12],MIC [14],Number of surviving mice ([13]; 1 day) [%],Number of surviving mice ([13]; 2 days) [%],Number of surviving mice ([13]; 3 days) [%],Number of surviving mice ([13]; 5 days) [%]
"CN(C(=O)N[C@@H](C(=O)N[C@@H]1C(=O)N2[C@@H]1SC(C)(C)[C@@H]2C(=O)O)c1ccccc1)C(=O)C1CC=CCC1 (single isomer, unassigned) [Example 65, Sodium D(-)-α-(3-(1,2,5,6)-tetrahydrobenzoyl-3-methyl-ureido)benzylpenicillin]",< 0.78 units/ml,1.56 units/ml,400 units/ml,3.12 units/ml,12.5 units/ml,50 units/ml,3.12 units/ml,6.25 units/ml,12.5 units/ml,12.5 units/ml,< 0.78 units/ml,50 units/ml,–,90,80,70,70
"CCCCOC(=O)N(C)C(=O)N[C@@H](C(=O)N[C@@H]1C(=O)N2[C@@H]1SC(C)(C)[C@@H]2C(=O)O)c1ccccc1 [Example 12, Sodium D(-)-α-(3-n-butoxycarbonyl-3-methyl-ureido)-benzylpenicillin]",6.3 units/ml,12.5 units/ml,> 400 units/ml,50 units/ml,100 units/ml,200 units/ml,100 units/ml,100 units/ml,400 units/ml,200 units/ml,1.6 units/ml,400 units/ml,50 units/ml,–,–,–,–
"CN(C(=O)N[C@@H](C(=O)N[C@@H]1C(=O)N2[C@@H]1SC(C)(C)[C@@H]2C(=O)O)c1ccccc1)C(=O)c1cccc(Cl)c1 [Example 117, Sodium D(-)-α-(3-m-chlorobenzoyl-3-methyl-ureido)-benzylpenicillin]",< 0.78 units/ml,1.56 units/ml,50 units/ml,1.56 units/ml,12.5 units/ml,50 units/ml,3.12 units/ml,3.12 units/ml,12.5 units/ml,12.5 units/ml,0.8 units/ml,12.5 units/ml,6.25 units/ml,–,–,–,–
